Test results reported in US7999147B2, “Reduction of odors in absorbent articles” (First Quality Products, Inc., priority 2004, dated 2011).
Several values for one entry are separate records, joined by “and”; a condition that tells them apart may be missing. Equal entries are not always repeated.

Columns and labels:
ammonia [1] = experiment: Ammonia concentration from urine in absorbent structures sprayed with additive solution (gas dosimeter tubes); set-up: species or system human; conditions: 37° C.
ammonia [2] = experiment: Ammonia concentration from urine in absorbent structures containing additive-treated SAP (gas dosimeter tubes); set-up: species or system human; conditions: 1.5 g SAP treated with FORESTALL (0.135 g per 13.5 g SAP) + 4.5 g fluff pulp, 37° C., donors X, Y
Experimental: The following is a detailed description of the test method to measure ammonia concentrations. A series of absorbent structures are prepared according to the following. The base absorbent structure is fluff pulp or a combination of fluff and SAP. Then, for example, an aqueous solution is prepared containing a known quantity of a potential treatment for ammonia malodor. An equal quantity of the solution is sprayed onto all but one of the series of absorbent structures. The spraying is applied as uniformly as possible. One absorbent structure is sprayed with an equal volume of water and is the control. All absorbent structures are left out several hours to dry. Each of the absorbent structures is then transferred to Nalgene® Brand 125-ml, narrow-mouth polycarbonate Erlenmeyer flasks. […]
Straughan® Gastec® ammonia gas dosimeter tubes, grade 3D, are broken off and thereby opened at one end. […] Donors collect a suitable quantity of fresh urine specimen in disposable collection cups marked with volume indications. […]
The flasks are then placed into a water bath set at 37° C. […] Based on discrete markings on the detector tube, the time-weighted average concentration of ammonia measured in parts per million-hour are read from the scale and recorded. […] Readings of ammonia concentrations are read up to 72 hours time or less if any of the concentrations exceed the maximum limit of the detection tube's range. […]

[3] = Water solubility of the additive; format: physicochemical
Experimental: Four absorbent structures are made according to Example 4 except onto three structures, 4.5 ml of an aqueous solution containing 1% M-Quat Dimer 18 is sprayed. To dissolve the additive in water, the temperature needed to be raised to about 45-60° C. M-Quat Dimer 18 is the tradename for 2-hydroxypropylene-bis-1,3-(dimethylstearylammonium chloride). […] This chemical is manufactured by BASF Corporation.

[4] = 4.5 ml of 1% M-Quat Dimer 18 sprayed on fluff pulp + SAP, urine, donors X, Y

Compound: 1-propanaminium, 3-amino-N-ethyl-N,N-dimethyl-N-soya acyl derivative, ethyl sulfate
- Ammonia Concentration ppm-hour 56 hour reading (ammonia [1]; 4.5 ml of 1% 1-propanaminium soya acyl derivative ethyl sulfate sprayed on fluff pulp + SAP, urine, donor Y, 56 hour): 25 ppm-hour
- Ammonia Concentration ppm-hour 72 hour reading (ammonia [1]; 4.5 ml of 1% 1-propanaminium soya acyl derivative ethyl sulfate sprayed on fluff pulp + SAP, urine, donor Z): 0 ppm-hour
- Ammonia Concentration ppm-hour 8 hour reading (ammonia [1]; 4.5 ml of 1% 1-propanaminium soya acyl derivative ethyl sulfate sprayed on fluff pulp + SAP, urine, donors Y, Z): 0 ppm-hour
- Ammonia Concentration ppm-hour 24 hour reading (ammonia [1]; 4.5 ml of 1% 1-propanaminium soya acyl derivative ethyl sulfate sprayed on fluff pulp + SAP, urine, donors Y, Z, 24 hour): 0 ppm-hour

Compound: 4-ethyl-4-soya morpholinium ethyl sulfate [FORESTALL]
- Ammonia Concentration ppm-hour 8 hour reading (ammonia [1]; 4.5 ml of 1% FORESTALL sprayed on 4.5 g fluff pulp + 1.5 g SAP, fresh urine, donors X, Y, Z): 0 ppm-hour
- Ammonia Concentration ppm-hour 32 hour reading (ammonia [2]): 25 ppm-hour and 30 ppm-hour

Compound: CCCCCCCCCCCCCCCCCC[N+](C)(C)CC(O)C[N+](C)(C)CCCCCCCCCCCCCCCCCC.[Cl-].[Cl-] [M-Quat Dimer 18, 2-hydroxypropylene-bis-1,3-(dimethylstearylammonium chloride)]
- Ammonia Concentration ppm-hour 8 hour reading (ammonia [1]; [4]): 0 ppm-hour
- Ammonia Concentration ppm-hour 32 hour reading (ammonia [1]; 4.5 ml of 1% M-Quat Dimer 18 sprayed on fluff pulp + SAP, urine, donors X, Y, 32 hour): 12 ppm-hour and 20 ppm-hour and 23 ppm-hour
- Ammonia Concentration ppm-hour 48 hour reading (ammonia [1]; 4.5 ml of 1% M-Quat Dimer 18 sprayed on fluff pulp + SAP, urine, donors X, Y, 48 hour): 25 ppm-hour and 30 ppm-hour and 50 ppm-hour
- Ammonia Concentration ppm-hour 72 hour reading (ammonia [1]; [4]): 250 ppm-hour and 470 ppm-hour and 280 ppm-hour and 400 ppm-hour and 425 ppm-hour
- Temperature needed to dissolve the additive in water ([3]; 1% aqueous solution): 45-60 °C
- Water solubility at 37° C. ([3]; 37° C.): not water soluble at 37 °C

Compound: ethylbis(hydroxyethyl)tallowalkyl ammonium ethyl sulfate
- Ammonia Concentration ppm-hour 8 hour reading (ammonia [1]; 4.5 ml of 1% ethylbis(hydroxyethyl)tallowalkyl ammonium ethyl sulfate sprayed on fluff pulp + SAP, urine, donors Z, X): 0 ppm-hour

Compound: hydrogenated tallowalkyl(2-ethylhexyl)dimethylammonium methyl sulfate [ARQUAD HTL8-MS]
- Ammonia Concentration ppm-hour 8 hour reading (ammonia [1]; 4.5 ml of 1% ARQUAD HTL8-MS sprayed on fluff pulp + SAP, urine, donors X, Y): 0 ppm-hour
